Results reported in US20070258989A1, “Immunomodulatory pharmaceutical composition and a process for preparation thereof” (Council of Scientific and Industrial Research, priority 2005, published 2007).

What was measured:
[1] = test system: Normal Mice (Mus musculus); experiment: Immunostimulant (humorral) activity: haemagglutination (HA) antibody titre after immunisation with rabbit RBC's; format: in vivo; settings: for Haemagglutination titre: mice fed 50-100 mg/Kg body weight, rabbit RBC antigen day 7 and 14, highest serum dilution showing agglutination
Description: A. For Humorral Immune Response • a) Treating the animals with the combination of the three coumarinolignoids at the dose in the range of 50-200 mg/Kg body weight for a period of 1-28 days. • b) Administering the animals with an antigen in the range of 0.01 to 0.3 ml of 5×10^9 RBC's in combination with a pharmaceutically acceptable diluent in a range 20-80% of the antigen used on day 7 for the initiation of antibody production. • c) Administering the same dosage regimen of the antigen and diluent as a booster dose after a period of 3-14 days from the day of primary immunization. • d) Withdrawing the blood using a capillary from the orbital plexus of the animal after a period of 18-25 days from the day of primary immunization. • e) Assessing the antibody production in the serum separated and isolated on 28th day through haemagglutination in a 96 well ‘U’ bottom microtitre plate at a titre ranging from 32-2048.
Normal healthy outbred mice, maintained under standard conditions (22±3° C., 12:12 hr light:dark cycle, pellet diet and soaked Bengal gram), 5 animals in each group were taken for the experiment. The animals were fed with the test compound at the dose rate of 50-100 mg/Kg body weight for a period of 1-28 days. Freshly collected and washed rabbit RBC's was used as an antigen which was used to immunize the animal on day 7 followed by the booster dose on day 14th. Blood was collected from the orbital plexus after 21 days and assessed for haemaggluting (HA) titre. The haemagglutination was carried upon using a serial two-fold dilution of the serum in 96 well ‘U’ bottom microtitre plates. The highest dilution showing visible agglutination was taken as the antibody titre.

[2] = test system: Hepatocytes (primary cultured liver cells); experiment: SGOT quantification of cell culture supernatant of liver cells damaged with d-galactosamine; format: cell-based; settings: compounds @ 1 μg/ml, 48-72 hrs incubation
Description: Hepatocytes were isolated and cultured into tissue culture plates and damaged with d-galactosamine @ 1 μg/ml and the cells were treated with the compounds under question. After 48-72 hrs of incubation the cell culture supernatant was taken for the estimation of SGOT levels which is indicative of the damage of the primary cultured liver cells.

| SMILES | humorral immunity HA titre ([1]; 256 in normal control) | Haemagglutination titre ([1]; animal 1) | Haemagglutination titre ([1]; animal 2) | Haemagglutination titre ([1]; animal 3) | Haemagglutination titre ([1]; animal 4) | Haemagglutination titre ([1]; animal 5) | Haemagglutination titre ([1]; animal 7) | SGOT levels of the cell culture supernatant ([2]; d-Galactosamine concentration 0.01) | SGOT levels of the cell culture supernatant ([2]; d-Galactosamine concentration 0.1) | SGOT levels of the cell culture supernatant ([2]; d-Galactosamine concentration 1) | SGOT levels of the cell culture supernatant ([2]; d-Galactosamine concentration 10) |
| --- | --- | --- | --- | --- | --- | --- | --- | --- | --- | --- | --- |
| O=P1(N(CCCl)CCCl)NCCCO1 (centres unmarked) [Ledoxan, Cyclophosphamide] | 0 | 0 | 0 | 0 | 0 | 0 | 0 | – | – | – | – |
| N[C@H]1C(O)O[C@H](CO)[C@H](O)[C@@H]1O (stereo partly drawn) [d-galactosamine] | – | – | – | – | – | – | – | 286 | 325 | 420 | 455 |
